Where no end group is shown, it is not given here.
target: MHC II molecules; assay: MHC/peptide competition binding assay with a radiolabelled known MHC binding peptide; details: purified MHC, incubation 2-4 days, non-binding defined as IC50≥30,000 nM
Protocol: Measurement of MHC/peptide interactions: Computational prediction algorithm was used to generate a list of putative non-binding peptides. Those peptides were synthesized and binding to MHC was measured as described in Sidney J et al, 2013.
Briefly, competition assays using different concentrations of WT and modified gluten peptides are conducted by diluting the peptides in NP40 buffer, and incubation for 2-4 days with purified MHC and a radiolabelled known MHC binding peptide. MHC II molecules are purified by affinity chromatography, and peptides are radiolabeled using the chloramine T method. After an incubation period, the bound and unbound radiolabeled species are separated, and their relative amounts are determined by either size-exclusion gel-filtration chromatography or monoclonal antibody capture of MHC. The percent of bound radioactivity is then determined. For each modified peptide, IC50 values of WT and modified peptide are calculated. The validated gluten peptide epitopes are analyzed for MHC binding as a positive control. Some of the peptides are tested also in a deamidated form.

Sequence | IC50
PQPFPPLPYPQPQSF [Variant P3i] | > 40 µM
PYSQPHRPYHQPQPF [Variant P3e] | > 40 µM
QLPYSQPHRPYHQPQ [Variant P2d] | > 40 µM
SLPMPQPSLRYRQPS [Variant P2i] | > 40 µM
TLPSPQPTLGYGQPT [Variant P2h] | > 40 µM

Results, then the sequence that gave them:

IC50 | Sequence
> 40 µM | FPPQPHPFPPQPQPF [Variant P3h]
> 40 µM | HLPGPQPHLSYPQPH [Variant P2e]
38.6 µM | LQLQPFPQPHLFPPQ [Variant P1c]
30.7 µM | LQLQPFPQPPLPYGQ [Variant P1e]
> 40 µM | PGGQPHLPGGQPQPF [Variant P3g]

Source: patent publication US12552844B2, “De-epitoped alpha gliadin and use of same for the management of celiac disease and gluten sensitivity” (Ukko Inc., priority 2019, dated 2026)
